Assay results published in the supplement of paper PMC6045584.
± gives the standard deviation of the averaged measurements.

How the values were obtained:
2-METHOXYESTRADIOL = compound: COc1cc2c(cc1O)CC[C@@H]1[C@@H]2CC[C@]2(C)[C@@H](O)CC[C@@H]12 [2-METHOXYESTRADIOL]; experiment: area under dose-response curve of surviving fraction (unscaled, Aref=0) (surviving fraction x log10(nM)); higher = more resistant; settings: exposure time: 5 days; dose range 0.5-1000 nM
How it was run: (§1)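 Surviving fractions were fitted by 3-parameter logistic regression in the drc R package to give dose-response survival curves. They came from tumour cell lines treated for five days with eight inhibitor concentrations from 0.5 to 1000 nM and read by CellTiter-Glo luminescence against DMSO-only wells. The area under the curve is the unscaled activity area. It was calculated over log10 dose with Aref = 0.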

RESVERATROL = compound: Oc1ccc(/C=C/c2cc(O)cc(O)c2)cc1 [RESVERATROL]; experiment: as above; settings: exposure time: 5 days; dose range 0.5-1000 nM
How it was run: as §1

NUTLIN3 = compound: COc1ccc(C2=N[C@@H](c3ccc(Cl)cc3)[C@@H](c3ccc(Cl)cc3)N2C(=O)N2CCNC(=O)C2)c(OC(C)C)c1 [NUTLIN3]; experiment: as above; settings: exposure time: 5 days; dose range 0.5-1000 nM
How it was run: as §1

DOXORUBICIN = compound: COc1cccc2c1C(=O)c1c(O)c3c(c(O)c1C2=O)C[C@@](O)(C(=O)CO)C[C@@H]3O[C@H]1C[C@H](N)[C@H](O)[C@H](C)O1 [DOXORUBICIN]; experiment: as above; settings: exposure time: 5 days; dose range 0.5-1000 nM
How it was run: as §1

LAPATINIB = compound: CS(=O)(=O)CCNCc1ccc(-c2ccc3ncnc(Nc4ccc(OCc5cccc(F)c5)c(Cl)c4)c3c2)o1 [LAPATINIB]; experiment: as above; settings: exposure time: 5 days; dose range 0.5-1000 nM
How it was run: as §1

FLAVOPIRIDOL = compound: CN1CC[C@H](c2c(O)cc(O)c3c(=O)cc(-c4ccccc4Cl)oc23)[C@H](O)C1 [FLAVOPIRIDOL]; experiment: as above; settings: exposure time: 5 days; dose range 0.5-1000 nM
How it was run: as §1

17-AAG = compound: C=CCNC1=C2C[C@@H](C)C[C@H](OC)[C@H](O)[C@@H](C)/C=C(\C)[C@H](OC(N)=O)[C@@H](OC)/C=C\C=C(/C)C(=O)NC(=CC1=O)C2=O [17-AAG]; experiment: as above; settings: exposure time: 5 days; dose range 0.5-1000 nM
How it was run: as §1

VISMODEGIB = compound: CS(=O)(=O)c1ccc(C(=O)Nc2ccc(Cl)c(-c3ccccn3)c2)c(Cl)c1 [VISMODEGIB]; experiment: as above; settings: exposure time: 5 days; dose range 0.5-1000 nM
How it was run: as §1

SALINOMYCIN = compound: CC[C@@H](C(=O)[C@@H](C)[C@@H](O)[C@H](C)[C@@H]1O[C@@H]([C@@H](CC)C(=O)O)CC[C@@H]1C)[C@H]1O[C@]2(C=C[C@@H](O)[C@]3(CC[C@@](C)([C@H]4CC[C@](O)(CC)[C@H](C)O4)O3)O2)[C@H](C)C[C@@H]1C [SALINOMYCIN]; experiment: as above; settings: exposure time: 5 days; dose range 0.5-1000 nM
How it was run: as §1

DECITABINE [1] = compound: T1, Nc1ncn([C@H]2C[C@H](O)[C@@H](CO)O2)c(=O)n1 [DECITABINE]; experiment: as above; settings: exposure time: 5 days; dose range 0.5-1000 nM
How it was run: as §1

[2] = compound: CCN(CC)CCCCNc1ncc2cc(-c3cc(OC)cc(OC)c3)c(NC(=O)NC(C)(C)C)nc2n1; experiment: as above; settings: exposure time: 5 days; dose range 0.5-1000 nM
How it was run: as §1

DECITABINE [3] = compound: T1, DECITABINE; experiment: surviving fraction relative to DMSO-only wells; higher = less growth inhibition; settings: exposure time: 5 days
How it was run: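 At 250–500 cells per well in 384-well plates, log-phase tumour cell lines were seeded and, 24 hours on, exposed continuously for five days to inhibitors at 0.5, 1, 5, 10, 50, 100, 500 and 1000 nM. Viability readout was CellTiter-Glo luminescence, reported as surviving fraction normalised to the median of DMSO-only wells.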

ABT-737 = compound: CN(C)CC[C@H](CSc1ccccc1)Nc1ccc(S(=O)(=O)NC(=O)c2ccc(N3CCN(Cc4ccccc4-c4ccc(Cl)cc4)CC3)cc2)cc1[N+](=O)[O-] [ABT-737]; experiment: area under dose-response curve of surviving fraction (unscaled, Aref=0) (surviving fraction x log10(nM)); higher = more resistant; settings: exposure time: 5 days; dose range 0.5-1000 nM
How it was run: as §1

Row | Test System | area under dose-response curve (2-METHOXYESTRADIOL) | area under dose-response curve (RESVERATROL) | area under dose-response curve (NUTLIN3) | area under dose-response curve (DOXORUBICIN) | area under dose-response curve (LAPATINIB) | area under dose-response curve (FLAVOPIRIDOL) | area under dose-response curve (17-AAG) | area under dose-response curve (VISMODEGIB) | area under dose-response curve (SALINOMYCIN) | area under dose-response curve (DECITABINE [1]) | area under dose-response curve [2] | surviving fraction (DECITABINE [3]; 0.5 nM) | surviving fraction (DECITABINE [3]; 1 nM) | surviving fraction (DECITABINE [3]; 5 nM) | surviving fraction (DECITABINE [3]; 10 nM) | surviving fraction (DECITABINE [3]; 50 nM) | surviving fraction (DECITABINE [3]; 100 nM) | surviving fraction (DECITABINE [3]; 500 nM) | surviving fraction (DECITABINE [3]; 1000 nM) | area under dose-response curve (ABT-737)
1 | NCIH441 LUNG | 3.22 | 3.72 | 3.56 | 2.15 | 3.58 | 2.48 | 2.37 | 3.27 | 3.12 | 2.57 | 3.37 | 1.11 ± 0.025 | 1.11 ± 0.058 | 1.03 ± 0.074 | 0.935 ± 0.039 | 0.71 ± 0.057 | 0.591 ± 0.12 | 0.494 ± 0.047 | 0.405 ± 0.056 | –
2 | S68 BREAST | 3.07 | 3.12 | 3.12 | 1.32 | – | 2.32 | 0.636 | 3.02 | 2.67 | 2.84 | 3.23 | 0.828 ± 0.28 | 0.903 ± 0.17 | 1.15 ± 0.28 | 1.13 ± 0.24 | 0.697 ± 0.21 | 0.926 ± 0.2 | 0.541 ± 0.13 | 0.445 ± 0.013 | 3.67
3 | SCC47 HEADNECK | 3.24 | 3.79 | 3.66 | 2.27 | – | 2.12 | 2.29 | 3.19 | 3.07 | – | 3.33 | 1.07 ± 0.084 | 1.08 ± 0.13 | 1.08 ± 0.012 | 1.09 ± 0.067 | 1.03 ± 0.058 | 1.03 ± 0.03 | 0.973 ± 0.028 | 0.863 ± 0.1 | 3.89
4 | SG27 HEADNECK | 3.61 | 3.59 | – | 2.61 | – | 2.29 | 2.94 | 3.18 | 2.95 | 3.79 | 3.03 | 1.17 ± 0.15 | 1.12 ± 0.06 | 1.15 ± 0.14 | 1.07 ± 0.14 | 1.2 ± 0.065 | 1.18 ± 0.14 | 1.11 ± 0.063 | 1.19 ± 0.16 | –
5 | SG28 HEADNECK | – | – | 3.29 | 2.4 | – | – | 1.95 | 3 | 2.71 | – | 3.28 | 1.14 ± 0.054 | 1.28 ± 0.038 | 1.2 ± 0.062 | 1.06 ± 0.098 | 1.25 ± 0.14 | 1.11 ± 0.045 | 1.11 ± 0.13 | 1.065 ± 0.0021 | –
6 | SG31 HEADNECK | 3.42 | – | 3.23 | 2.02 | – | 2.03 | 1.94 | 3.05 | 2.81 | – | 3.09 | 1.27 ± 0.12 | 1.2 ± 0.059 | 1.14 ± 0.083 | 1.13 ± 0.1 | 1.08 ± 0.04 | 0.952 ± 0.11 | 1.01 ± 0.13 | 0.909 ± 0.095 | 3.88
7 | SG32 HEADNECK | 2.92 | 3.38 | 3.75 | 1.68 | 3.6 | 1.72 | 1.96 | – | 2.42 | – | 3.36 | 1.25 ± 0.11 | 1.26 ± 0.16 | 1.12 ± 0.12 | 1.16 ± 0.067 | 1.25 ± 0.36 | 1.1 ± 0.14 | 0.908 ± 0.071 | 0.715 ± 0.064 | 3.48
